Experimental data as given in ChEMBL document CHEMBL1201862, “PubChem BioAssay data set” (2004).
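Five concentrations, 48 hours, 96-well plates. Abbreviation: GI50, concentration required for 50% inhibition of growth.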 The source made the active and inactive calls. Cut-off read from the data, not from the text of the source: active = GI50 up to about 1.1 µM and inactive = higher.

Legend:
Experiment in all cases: growth of human tumour cells (NCI), 48 h
[1] = tested on: CCRF-CEM
[2] = tested on: UACC-62
[3] = tested on: OVCAR-5
[4] = tested on: HCT-116
[5] = tested on: SF-539
[6] = tested on: DMS-273
[7] = tested on: KM12
[8] = tested on: OVCAR-4
[9] = tested on: A498
[10] = tested on: HOP-62
[11] = tested on: HT-29
[12] = tested on: M19-MEL
[13] = tested on: MOLT-4
[14] = tested on: UO-31
[15] = tested on: DLD-1
[16] = tested on: SNB-78
[17] = tested on: KM-20L2
[18] = tested on: SK-MEL-2
[19] = tested on: HCC 2998
[20] = tested on: U-251
[21] = tested on: IGROV-1
[22] = tested on: SF-295
[23] = tested on: NCI/ADR-RES
[24] = tested on: NCI-H460
[25] = tested on: HOP-92
[26] = tested on: SN12C
[27] = tested on: A549
[28] = tested on: EKVX
[29] = tested on: DMS-114
[30] = tested on: SK-MEL-28
[31] = tested on: UACC-257
[32] = tested on: COLO 205
[33] = tested on: SNB-19
[34] = tested on: XF498
[35] = tested on: SK-OV-3
[36] = tested on: RXF 393
[37] = tested on: SW-620
[38] = tested on: OVCAR-3
[39] = tested on: SF-268
[40] = tested on: K562
[41] = tested on: SK-MEL-5
[42] = tested on: OVCAR-8
[43] = tested on: HCT-15
[44] = tested on: HL-60
[45] = tested on: SNB-75
[46] = tested on: MCF7
[47] = tested on: HOP-18
[48] = tested on: NCI-H23
[49] = tested on: CAKI-1
[50] = tested on: RPMI-8226
[51] = tested on: LOX IMVI
[52] = tested on: NCI-H226
[53] = tested on: Hs-578T
[54] = tested on: 786-0
[55] = tested on: DU-145
[56] = tested on: TK-10
[57] = tested on: LXFL 529
[58] = tested on: NCI-H522
[59] = tested on: MDA-MB-231
[60] = tested on: PC-3
[61] = tested on: ACHN
[62] = tested on: BT-549
[63] = tested on: T47D
[64] = tested on: MDA-N
[65] = tested on: M14
[66] = tested on: SR
[67] = tested on: MDA-MB-435
[68] = tested on: Malme-3M

CCOC(=O)c1cc(Cl)ccc1OC(N)=O
GI50 [1]: > 100 µM (inactive) | GI50 [2]: > 100 µM (inactive) | GI50 [3]: > 100 µM (inactive) | GI50 [4]: > 100 µM (inactive) | GI50 [5]: > 100 µM (inactive) | GI50 [6]: > 100 µM (inactive) | GI50 [7]: > 100 µM (inactive) | GI50 [8]: > 100 µM (inactive) | GI50 [9]: > 100 µM (inactive) | GI50 [10]: > 100 µM (inactive) | GI50 [11]: > 100 µM (inactive) | GI50 [12]: > 100 µM (inactive) | GI50 [13]: > 100 µM (inactive) | GI50 [14]: > 100 µM (inactive) | GI50 [15]: > 100 µM (inactive) | GI50 [16]: > 100 µM (inactive) | GI50 [17]: > 100 µM (inactive) | GI50 [18]: > 100 µM (inactive) | GI50 [19]: > 100 µM (inactive) | GI50 [20]: > 100 µM (inactive) | GI50 [21]: > 100 µM (inactive) | GI50 [22]: > 100 µM (inactive) | GI50 [23]: > 100 µM (inactive) | GI50 [24]: > 100 µM (inactive) | GI50 [25]: > 100 µM (inactive) | GI50 [26]: > 100 µM (inactive) | GI50 [27]: > 100 µM (inactive) | GI50 [28]: > 100 µM (inactive) | GI50 [29]: > 100 µM (inactive) | GI50 [30]: > 100 µM (inactive) | GI50 [31]: > 100 µM (inactive) | GI50 [32]: > 100 µM (inactive) | GI50 [33]: > 100 µM (inactive) | GI50 [34]: > 100 µM (inactive) | GI50 [35]: > 100 µM (inactive) | GI50 [36]: > 100 µM (inactive) | GI50 [37]: > 100 µM (inactive) | GI50 [38]: > 100 µM (inactive) | GI50 [39]: > 100 µM (inactive) | GI50 [40]: > 100 µM (inactive) | GI50 [41]: > 100 µM (inactive) | GI50 [42]: > 100 µM (inactive) | GI50 [43]: > 100000 nM | GI50 [44]: > 100 µM (inactive) | GI50 [45]: > 100 µM (inactive) | GI50 [46]: > 100 µM (inactive) | GI50 [47]: > 96.4 µM (inactive) | GI50 [48]: > 100 µM (inactive) | GI50 [49]: > 100 µM (inactive) | GI50 [50]: > 100 µM (inactive) | GI50 [51]: > 100 µM (inactive) | GI50 [52]: > 100 µM (inactive)

Oc1cc(-c2cccc(F)c2)nc2cc3c(cc12)OCO3
GI50 [1]: 0.0507 µM (active) | GI50 [2]: 0.0345 µM (active) | GI50 [53]: 22.6 nM (active) | GI50 [3]: 0.345 µM (active) | GI50 [4]: 0.0405 µM (active) | GI50 [5]: 0.0573 µM (active) | GI50 [54]: 44.1 nM (active) | GI50 [55]: 52.4 nM (active) | GI50 [6]: 0.349 µM (active) | GI50 [7]: 0.0341 µM (active) | GI50 [8]: 1.26 µM (inactive) | GI50 [9]: 0.157 µM (active) | GI50 [10]: 0.165 µM (active) | GI50 [12]: 0.272 µM (active) | GI50 [13]: 0.136 µM (active) | GI50 [14]: 0.124 µM (active) | GI50 [15]: 0.252 µM (active) | GI50 [56]: 879 nM (active) | GI50 [16]: 0.343 µM (active) | GI50 [18]: 0.0308 µM (active) | GI50 [19]: 0.0705 µM (active) | GI50 [20]: 0.0757 µM (active) | GI50 [57]: 463 nM (active) | GI50 [21]: 0.102 µM (active) | GI50 [58]: 29 nM (active) | GI50 [22]: 0.102 µM (active) | GI50 [23]: 0.0199 µM (active) | GI50 [24]: 0.07 µM (active) | GI50 [25]: 0.272 µM (active) | GI50 [26]: 0.129 µM (active) | GI50 [27]: 0.119 µM (active) | GI50 [28]: 6.56 µM (inactive) | GI50 [29]: 0.239 µM (active) | GI50 [30]: 0.0439 µM (active) | GI50 [31]: 0.0236 µM (active) | GI50 [59]: 141 nM (active) | GI50 [32]: 0.0743 µM (active) | GI50 [60]: 47.3 nM (active) | GI50 [33]: 0.124 µM (active) | GI50 [34]: 0.495 µM (active) | GI50 [35]: 0.0698 µM (active) | GI50 [36]: 0.0546 µM (active) | GI50 [61]: 119 nM (active) | GI50 [37]: 0.0356 µM (active) | GI50 [62]: 200 nM (active) | GI50 [38]: 0.0222 µM (active) | GI50 [63]: > 100 µM (inactive) | GI50 [39]: 0.115 µM (active) | GI50 [40]: 0.0653 µM (active) | GI50 [41]: 0.03 µM (active) | GI50 [42]: 0.0347 µM (active) | GI50 [43]: 71.1 nM | GI50 [44]: 0.0313 µM (active) | GI50 [45]: 0.0334 µM (active) | GI50 [46]: 0.108 µM (active) | GI50 [47]: 5.42 µM (inactive) | GI50 [48]: 0.294 µM (active) | GI50 [64]: 11.1 nM (active) | GI50 [49]: 0.0513 µM (active) | GI50 [50]: 0.0581 µM (active) | GI50 [51]: 0.0692 µM (active) | GI50 [65]: 40.2 nM (active) | GI50 [66]: 24.1 nM (active) | GI50 [67]: 11.2 nM (active) | GI50 [68]: 45.4 nM (active)
